Counter-ions that a name gives are not always drawn.
Test system: spontaneously hypertensive rats (SHR)
Assay: Diuretic activity in spontaneously hypertensive rats
Type: in vivo, male spontaneously hypertensive rats (Okamoto strain)
Details: 100 mg/kg by gavage with 0.9% sodium chloride loading 25 ml/kg; 0-5 hour urine
Description: The diuretic activity of the compounds of this invention was also determined according to the method of Chan, P. S. and Poorvin, D., Sequential method for combined screening antihypertensive and diuretic agents in the same spontaneously hypertensive rat. Clinical and Experimental Hypertension, 1(6), 817-830 (1979).
Male spontaneously hypertensive rats (SHR) of Okamoto strain, 16 weeks old, Taconic Farms Inc. were used in the test. These rats were kept on Purina laboratory chow and tap water ad libitum for 8 weeks before use. One male adult rat (about 300 g) was dosed by gavage with a test compound at 100 mg/kg together with 0.9% sodium chloride loading at 25 ml/kg at zero hour. The test compound was suspended in 3% preboiled starch at 50 mg/ml. The rat was put in a metabolism cage. The 0-5 hour urine was collected and urinary sodium and potassium were determined using a Beckman Astra 4. The effects of representative compounds of the invention according to this test appear in Table III expressed in milliequivalents (mEQ) of urinary sodium and potassium excreted.

SMILES | Potassium (urinary excretion) | Sodium (urinary excretion) | Volume (urine)
COC(=O)N=P(c1ccccc1)(c1ccccc1)c1ccccc1C [[(2-methylphenyl)diphenylphosphoranylidene]carbamic acid, methyl ester] | 0.88 mEQ/5 Hours | 1.95 mEQ/5 Hours | 18.3 mL
CCCC1(OC(=O)N=P(c2ccccc2)(c2ccccc2)c2ccccc2)CCCC1 [(triphenylphosphoranylidene)carbamic acid, 1-propylcyclopentyl ester] | 0.63 mEQ/5 Hours | 1.14 mEQ/5 Hours | 10.3 mL
O=C(N=P(c1ccccc1)(c1ccccc1)c1ccccc1Cl)OC1CCOC1 (stereo not drawn) [[(2-chlorophenyl)diphenylphosphoranylidene]carbamic acid, tetrahydro-3-furanyl ester] | 0.68 mEQ/5 Hours | 1.90 mEQ/5 Hours | 20.0 mL
CCc1ccccc1P(=NC(=O)OC)(c1ccccc1)c1ccccc1 [[(2-ethylphenyl)diphenylphosphoranylidene]carbamic acid, methyl ester] | 0.58 mEQ/5 Hours | 1.36 mEQ/5 Hours | 14.3 mL
O=C(N=P(c1ccccc1)(c1ccccc1)c1ccccc1C(F)(F)F)OC1CCOC1 (stereo not drawn) [[diphenyl[2-(trifluoromethyl)phenyl]phosphoranylidene]carbamic acid, tetrahydro-3-furanyl ester] | 0.63 mEQ/5 Hours | 1.64 mEQ/5 Hours | 16.3 mL
O=C(N=P(c1ccccc1)(c1ccccc1)c1ccccc1)OC(C1CC1)C1CC1 [(triphenylphosphoranylidene)carbamic acid, dicyclopropylmethyl ester] | 1.07 mEQ/5 Hours | 1.58 mEQ/5 Hours | 14.3 mL
O=C(N=P(c1ccccc1)(c1ccccc1)c1ccccc1)OC1CCOCC1 [(triphenylphosphoranylidene)carbamic acid, tetrahydro-2 --H--pyran-4-yl ester] | 0.64 mEQ/5 Hours | 1.60 mEQ/5 Hours | 15.3 mL
CCOC(=O)N=P(c1ccccc1)(c1ccccc1)c1ccccc1OC [[(2-Methoxyphenyl)diphenylphosphoranylidene]carbamic acid, ethyl ester] | 0.97 mEQ/5 Hours | 1.31 mEQ/5 Hours | 11.3 mL
O=C(N=P(c1ccccc1)(c1ccccc1)c1ccccc1)OCc1ccncc1 [(triphenylphosphoranylidene)carbamic acid, 4-pyridinylmethyl ester] | 0.70 mEQ/5 Hours | 1.50 mEQ/5 Hours | 16.5 mL
CC1CC1COC(=O)N=P(c1ccccc1)(c1ccccc1)c1ccccc1 (stereo not drawn) [(triphenylphosphoranylidene)carbamic acid, (2-methylcyclopropyl)methyl ester] | 0.47 mEQ/5 Hours | 1.28 mEQ/5 Hours | 11.3 mL
CCOC(=O)N=P(c1ccccc1)(c1cccc(Cl)c1)c1cccc(Cl)c1 [[[bis(3-chlorophenyl)phenyl]phosphoranylidene]carbamic acid, ethyl ester] | 0.89 mEQ/5 Hours | 1.84 mEQ/5 Hours | 18.3 mL
CCOC(=O)N=P(c1ccccc1)(c1ccccc1)c1ccccc1C(C)C [[[2-(1-Methylethyl)phenyl]diphenylphosphoranylidene]carbamic acid, ethyl ester] | 0.83 mEQ/5 Hours | 2.08 mEQ/5 Hours | 18.8 mL
Cc1ccccc1P(=NC(=O)OC1CCCC1)(c1ccccc1)c1ccccc1 [[(2-methylphenyl)diphenylphosphoranylidene]carbamic acid, cyclopentyl ester] | 0.67 mEQ/5 Hours | 1.18 mEQ/5 Hours | 10.8 mL
CCOC(=O)N=P(c1ccccc1)(c1ccccc1)c1ccccc1F [[Diphenyl(2-fluorophenyl)phosphoranylidene]carbamic acid, ethyl ester] | 0.66 mEQ/5 Hours | 2.01 mEQ/5 Hours | 19.8 mL
CC(OC(=O)N=P(c1ccccc1)(c1ccccc1)c1ccccc1)C1CC1 (stereo not drawn) [(triphenylphosphoranylidene)carbamic acid, 1-cyclopropylethyl ester] | 0.65 mEQ/5 Hours | 1.19 mEQ/5 Hours | 12.0 mL
CC1(OC(=O)N=P(c2ccccc2)(c2ccccc2)c2ccccc2)CCCC1 [(Triphenylphosphoranylidene)carbamic acid, 1-methylcyclopentyl ester] | 0.86 mEQ/5 Hours | 1.49 mEQ/5 Hours | 14.8 mL
C#CCOC(=O)N=P(c1ccccc1)(c1ccccc1)c1ccccc1 [(triphenylphosphoranylidene)carbamic acid, 2-propynyl ester] | 0.58 mEQ/5 Hours | 1.76 mEQ/5 Hours | 15.5 mL
CO[C@@H]1CCC[C@H]1OC(=O)N=P(c1ccccc1)(c1ccccc1)c1ccccc1 (relative stereo) [(triphenylphosphoranylidene)carbamic acid, trans-2-methoxycyclopentyl ester] | 0.72 mEQ/5 Hours | 1.83 mEQ/5 Hours | 17.0 mL
CO[C@@H]1CCCC[C@H]1OC(=O)N=P(c1ccccc1)(c1ccccc1)c1ccccc1 (relative stereo) [(triphenylphosphoranylidene)carbamic acid, trans-2-methoxycyclohexyl ester] | 0.67 mEQ/5 Hours | 1.45 mEQ/5 Hours | 12.8 mL
O=C(N=P(c1ccccc1)(c1ccccc1)c1ccccc1)OC1CCCC1 [(triphenylphosphoranylidene)carbamic acid, cyclopentyl ester] | 0.80 mEQ/5 Hours | 1.48 mEQ/5 Hours | 14.0 mL
CCOC(=O)N=P(c1ccccc1)(c1ccccc1)c1ccccc1Br [[(2-bromophenyl)diphenylphosphoranylidene]carbamic acid, ethyl ester] | 0.68 mEQ/5 Hours | 2.51 mEQ/5 Hours | 22.5 mL
Cc1ccccc1P(=N)(c1ccccc1)c1ccccc1C [[Bis(2-methylphenyl)phenyl]phosphinimide sulfate] | 0.88 mEQ/5 Hours | 1.44 mEQ/5 Hours | 13.0 mL
CCOC(=O)N=P(c1ccccc1)(c1ccccc1)c1ccccc1CC [[(2-ethylphenyl)diphenylphosphoranylidene]carbamic acid, ethyl ester] | 0.78 mEQ/5 Hours | 2.07 mEQ/5 Hours | 19.0 mL
Cc1ccccc1P(=N)(c1ccccc1)c1ccccc1 [(2-Methylphenyl)diphenylphosphinimide sulfate] | 0.68 mEQ/5 Hours | 1.88 mEQ/5 Hours | 16.3 mL

Source: patent US4767749A, “Ester of (triarylphosphoranylidene)carbamic acid having diuretic and ability to lower plasma renin properties” (American Cyanamid Company, priority 1986, dated 1988)
